{
  "source": "patent US20210009914A1",
  "about": "“NOVEL APPLICATIONS OF PULSED ELECTRIC FIELD AND E-BEAM TECHNOLOGY” (KEMIN INDUSTRIES, INC., priority 2019, published 2021)",
  "key": {"[1]": {"system": "Total Enterobacteriaceae", "assay": "Total Enterobacteriaceae count in naturally contaminated broiler feed, products before PEF at reduced additional water (Example 2)", "format": "cell-based", "conditions": "3 kg/T before PEF 5 kV/cm, medium 120 kJ/kg; for Log reduction: vs control of same water level", "method": "(§1) Feed materials. Pig feed, naturally contaminated with Enterobacteriaceae, was obtained from Feed Design Lab (the Netherlands). The naturally contaminated pig feed, not treated with an antimicrobial product, was diluted with mash broiler feed obtained from AVEVE until the required contamination level was obtained (Enterobacteriaceae contamination of 4 log cfu/g). After this dilution, the mash feed was mixed intensively to ensure a homogeneous contamination.\nApplication of antimicrobial products. The products were sprayed on a thin layer of the feed (portions of 500 g) by use of a nebulizer. The product Sal CURB® Ba Liquid (lot number: 191111883) was dosed at 6 kg/T. Formic acid 85% (RM00672, lot 20000200403), the main component of Sal CURB Ba Liquid (i.e. 50% formic acid) was dosed at 3 kg/T and 6 kg/T. Sal CURB Ba Liquid also contains a mixture of different surfactants. After treatment, the samples were sent to ELEA GmbH (Quakenbrück, Germany) for PEF treatments.\nPEF treatments. PEF experiments were carried out using the PEFPilot™ System (220V, 50 Hz) at ELEA GmbH (Quakenbrück, Germany) at room temperature. The PEF treatments were performed at 8 days after application of the antimicrobial products. The feed samples were stored at room temperature (20-25° C.) before PEF treatment. Each PEF treatment consisted of at least two replicates. Quantities of 50, 20 and 15 percent additional water (tap-water at room temperature), were added to the feed to prevent the formation of air bubbles, which increase the chance for a dielectric breakdown and arching. Before PEF treatment, the treatment chamber was filled with the feed, the feed was leveled and pressed using a plastic stick. […] Exponential decay pulses with width of 40 microseconds and frequency of 2 Hz were applied. An electric field strength of 5 kV/cm and a specific energetic level of 120 kJ/kg (600 pulses) was applied. The treatment chamber was rinsed after each treatment and pre-cooled in ice-water before new feed samples were added.\nTest setups. The antimicrobial products were always applied on the feed before the PEF treatments. The different quantities of added tap-water were mixed homogeneously in the feed just before the PEF treatments. After the treatments, all feed samples were stored at room temperature.\n(§2) Determination of total Enterobacteriacea level. The total Enterobacteriaceae level (TEC) of the feed samples not treated and treated with the antimicrobial products was determined at 10 days after product treatment. The TEC of the PEF treated samples was determined at 48 h after PEF treatment. Three suspensions of each feed sample were prepared by mixing 10 g of the sample with 90 g of saline and by homogenizing the samples for 60 seconds in a Stomacher. RAPID' Enterobacteriaceae plates (Bio-Rad, 3564004) were inoculated using a spiral plate counter (Eddy Jet, IUL Instruments). The plates were incubated overnight at 37° C. for 24 h. After incubation, the colonies were counted manually, as explained in the Internal Instruction. To obtain accurate results, the minimum number of colonies counted per plate was specified as 10 (a lower number gives less statistically significant results). Values below this limit, at the lowest sample dilution (100 cfu/g), were reported to a value equal to half of this limit (50 cfu/g). The colony-forming units were log-transformed prior to the statistical analyses. The microbiological data were analyzed using the Statgraphics Centurion XVI software (Statpoint Technologies, Inc., Virginia, USA). All data were subjected to one-way ANOVA and differences were separated using the least significant differences procedure. All statements of significance were based on a P-value less than 0.05, unless otherwise specified."}, "[2]": {"system": "Total Enterobacteriaceae", "assay": "Total Enterobacteriaceae count in naturally contaminated broiler feed, antimicrobial products with/without PEF (Example 1)", "format": "cell-based", "method": "as §1\nPEF treatments. PEF experiments were carried out using the PEFPilot™ System (220V, 50 Hz) at ELEA GmbH (Quakenbrück, Germany) at room temperature. The feed was stored at room temperature (20-25° C.) before treatment. An amount of 50 percent additional water (tap-water at room temperature), was added to the feed to prevent the formation of air bubbles, which increase the chance for a dielectric breakdown and arching. Before PEF treatment, the treatment chamber was filled with the feed, the feed was leveled and pressed using a plastic stick. […] Exponential decay pulses with width of 40 microseconds and frequency of 2 Hz were applied. An electric field strength of 5 kV/cm and specific energies of 12 (60 pulses), 120 (600 pulses) and 168 kJ/kg (840 pulses) were applied. The treatment chamber was rinsed after each treatment and pre-cooled in ice-water before new feed samples were added. Each PEF treatment consisted of at least two replicates. The temperature of the feed was measured just after the PEF treatment.\nApplication of antimicrobial products. The products were sprayed on a thin layer of the feed (portions of 300 g) by use of a nebulizer. The product Sal CURB® Ba Liquid (lot number: 1911110883) was dosed at 6 kg/T. Formic acid 85% (RM00672, lot 20000200403), the main component of Sal CURB Ba Liquid (i.e. 50% formic acid) was dosed at 3 kg/T and 6 kg/T. Sal CURB Ba Liquid also contains a mixture of different surfactants.\nTest setups. The effect of the application of the antimicrobials alone on the naturally contaminated feed was tested in a separate experiment. In a first series of PEF experiments (first trial), the antimicrobial products were sprayed on the feed just after applying the PEF treatments, while for the second series of experiments (second trial) the antimicrobial products were applied on the feed before the PEF treatments.\nas §2, with “products and/or PEF” for “products”, “24” for “10 days after product treatment. The TEC of the PEF treated samples was determined at 48”, “PEF/product treatments.” for “PEF treatment.”, “manually.” for “manually, as explained in the Internal Instruction.”"}},
  "data": [
    {"smiles": "O=CO", "note": "[Formic acid]", "values": [
      {"measurement": "Log (cfu/g)", "setting": "[1]; 15% additional water", "result": "2.83 c Log (cfu/g)"},
      {"measurement": "Log reduction", "setting": "[1]; 15% additional water", "result": 1.44, "unit": "log"},
      {"measurement": "Log reduction", "setting": "[1]; 15% additional water, listed as formic acid", "result": 1.4, "unit": "log"},
      {"measurement": "Log (cfu/g)", "setting": "[1]; 20% additional water", "result": "2.30 d Log (cfu/g)"},
      {"measurement": "Log reduction", "setting": "[1]; 20% additional water", "result": 2.20, "unit": "log"},
      {"measurement": "Log (cfu/g)", "setting": "[1]; 50% additional water", "result": "2.82 c Log (cfu/g)"},
      {"measurement": "Log reduction", "setting": "[1]; 50% additional water", "result": 1.60, "unit": "log"},
      {"measurement": "Log (cfu/g)", "setting": "[2]; 3 kg/T applied after PEF 5 kV/cm, high intensity 168 kJ/kg, 50% additional water", "result": "3.34 h Log (cfu/g)"},
      {"measurement": "Log reduction", "setting": "[2]; 3 kg/T applied after PEF 5 kV/cm, high intensity 168 kJ/kg, vs no-treatment control", "result": 0.92, "unit": "log"},
      {"measurement": "Log (cfu/g)", "setting": "[2]; 3 kg/T applied after PEF 5 kV/cm, low intensity 12 kJ/kg, 50% additional water", "result": "3.94 de Log (cfu/g)"},
      {"measurement": "Log reduction", "setting": "[2]; 3 kg/T applied after PEF 5 kV/cm, low intensity 12 kJ/kg, vs no-treatment control", "result": 0.32, "unit": "log"},
      {"measurement": "Log (cfu/g)", "setting": "[2]; 3 kg/T applied after PEF 5 kV/cm, medium intensity 120 kJ/kg, 50% additional water", "result": "4.10 ad Log (cfu/g)"},
      {"measurement": "Log reduction", "setting": "[2]; 3 kg/T applied after PEF 5 kV/cm, medium intensity 120 kJ/kg, vs no-treatment control", "result": 0.16, "unit": "log"},
      {"measurement": "Log (cfu/g)", "setting": "[2]; 3 kg/T applied before PEF 5 kV/cm, high intensity 168 kJ/kg, 50% additional water", "result": "2.95 d Log (cfu/g)"},
      {"measurement": "Log reduction", "setting": "[2]; 3 kg/T applied before PEF 5 kV/cm, high intensity 168 kJ/kg, vs no-treatment control", "result": 2.14, "unit": "log"},
      {"measurement": "Log (cfu/g)", "setting": "[2]; 3 kg/T applied before PEF 5 kV/cm, medium intensity 120 kJ/kg, 50% additional water", "result": "3.58 c Log (cfu/g)"},
      {"measurement": "Log reduction", "setting": "[2]; 3 kg/T applied before PEF 5 kV/cm, medium intensity 120 kJ/kg, vs no-treatment control", "result": 1.51, "unit": "log"},
      {"measurement": "Log (cfu/g)", "setting": "[2]; 3 kg/T, no PEF, 50% additional water (Table 5, trial 2)", "result": "4.15 b Log (cfu/g)"},
      {"measurement": "Log reduction", "setting": "[2]; 3 kg/T, no PEF, vs no-treatment control (Table 5, trial 2)", "result": 0.94, "unit": "log"},
      {"measurement": "Log (cfu/g)", "setting": "[2]; 3 kg/T, product alone, no PEF (Table 3)", "result": "3.80 ab Log (cfu/g)"},
      {"measurement": "Log reduction", "setting": "[2]; 3 kg/T, product alone, no PEF, vs untreated control (Table 3)", "result": 0.37, "unit": "log"},
      {"measurement": "Log (cfu/g)", "setting": "[2]; 6 kg/T applied after PEF 5 kV/cm, high intensity 168 kJ/kg, 50% additional water", "result": "3.06 i Log (cfu/g)"},
      {"measurement": "Log reduction", "setting": "[2]; 6 kg/T applied after PEF 5 kV/cm, high intensity 168 kJ/kg, vs no-treatment control", "result": 1.20, "unit": "log"},
      {"measurement": "Log (cfu/g)", "setting": "[2]; 6 kg/T applied after PEF 5 kV/cm, low intensity 12 kJ/kg, 50% additional water", "result": "4.03 ade Log (cfu/g)"},
      {"measurement": "Log reduction", "setting": "[2]; 6 kg/T applied after PEF 5 kV/cm, low intensity 12 kJ/kg, vs no-treatment control", "result": 0.23, "unit": "log"},
      {"measurement": "Log (cfu/g)", "setting": "[2]; 6 kg/T applied after PEF 5 kV/cm, medium intensity 120 kJ/kg, 50% additional water", "result": "3.71 fg Log (cfu/g)"},
      {"measurement": "Log reduction", "setting": "[2]; 6 kg/T applied after PEF 5 kV/cm, medium intensity 120 kJ/kg, vs no-treatment control", "result": 0.55, "unit": "log"},
      {"measurement": "Log (cfu/g)", "setting": "[2]; 6 kg/T applied before PEF 5 kV/cm, high intensity 168 kJ/kg, 50% additional water", "result": "1.70 f^ Log (cfu/g)"},
      {"measurement": "Log reduction", "setting": "[2]; 6 kg/T applied before PEF 5 kV/cm, high intensity 168 kJ/kg, vs no-treatment control", "result": 3.39, "unit": "log"},
      {"measurement": "Log (cfu/g)", "setting": "[2]; 6 kg/T applied before PEF 5 kV/cm, medium intensity 120 kJ/kg, 50% additional water", "result": "2.25 e Log (cfu/g)"},
      {"measurement": "Log reduction", "setting": "[2]; 6 kg/T applied before PEF 5 kV/cm, medium intensity 120 kJ/kg, vs no-treatment control", "result": 2.84, "unit": "log"},
      {"measurement": "Log (cfu/g)", "setting": "[2]; 6 kg/T, no PEF, 50% additional water (Table 5, trial 2)", "result": "3.55 c Log (cfu/g)"},
      {"measurement": "Log reduction", "setting": "[2]; 6 kg/T, no PEF, vs no-treatment control (Table 5, trial 2)", "result": 1.54, "unit": "log"},
      {"measurement": "Log (cfu/g)", "setting": "[2]; 6 kg/T, product alone, no PEF (Table 3)", "result": "3.33 b Log (cfu/g)"},
      {"measurement": "Log reduction", "setting": "[2]; 6 kg/T, product alone, no PEF, vs untreated control (Table 3)", "result": 0.84, "unit": "log"}
    ]}
  ]
}
